Data: article PMC8528301 (PLoS ONE, 2021)
Values joined by “and” are separate entries in the source; they are usually repeats but may differ in a detail not shown here. Identical values can stand only once.

Test: Dasatinib single oral gavage plasma pharmacokinetics (NLME modeling)
Type: in vivo, mouse
Design: DV (dasatinib plasma concentration): unit: ng/mL
Description: Dasatinib was dissolved in 80 mMol/L sodium citrate buffer pH 3.1 for a total dasatinib concentration of 1 mg/mL and a 10 mL/kg gavage volume. Mice were grouped by VD3 status and sex and studied at 8 and 10 weeks of age. […] Saphenous and submandibular bleeds of mice using a single-use Sarstedt Minivette POCT 50 μL K3 EDTA capillary device are humane methods for obtaining small volumes of blood over multiple time points, preferrable to retroorbital bleeds, and were approved for this study that required blood sampling at multiple time points (three) after dasatinib administration. Each mouse was sampled three times on two separate dasatinib dosing occasions. Blood was collected into the Minivette capillary device, dispensed into a microtube and vortexed to mix the anticoagulant. The tubes were then immediately centrifuged to plasma and stored on dry ice for the remainder of the study. At the end of the in vivo procedures, plasma samples were transferred from dry ice and placed at -80°C until analysis.
Total plasma dasatinib concentrations were assessed using a sensitive and specific liquid chromatography, tandem mass spectrometry (LC-MS/MS) assay. Dasatinib stock solutions were prepared in acetonitrile and used to spike matrix calibrators and quality controls. Protein precipitation was performed using a 1:4 ratio of plasma to 15 ng/mL erlotinib HCl (St. Jude Compound Management, S00004053, Inventory ID: SJCH0042996, Purity > 95%) in methanol as an internal standard. A 3μL aliquot of the extracted supernatant was injected onto a Shimadzu LC-20ADXR high performance liquid chromatography system via a LEAP CTC PAL autosampler. The LC separation was performed using a Phenomenex Kinetex 2.6 um EVO C18 (100A, 50 x 2.1 mm) maintained at 50°C with gradient elution at a flow rate of 0.5 mL/min. The binary mobile phase gradient began with a linear increase to 100% B in 4.0 minutes. The column was then rinsed for 2.0 minutes at 100% B and then equilibrated at the initial conditions for two minutes for a total run time of eight minutes.
Analyte and IS were detected with tandem mass spectrometry using a SCIEX API 5500 Q-TRAP in the positive ESI mode with monitoring of the following mass transitions: Dasatinib 488.20 -> 401.00, erlotinib HCl 394.20 -> 250.10.
The experimental bioanalytical runs were all found to be acceptable for the purpose of a singlicate non-GLP, preclinical PK assessment. A linear model (1/X^2 weighting) fit the calibrators across the 1.00 to 500 ng/mL range, with a correlation coefficient (R) of […]. The lower limit of quantification (LLOQ), defined as a peak area signal-to-noise ratio of 5 or greater verses a matric blank with IS, was 1.00 ng/mL.
§ To evaluate the plasma pharmacokinetics (PK) of dasatinib af t er two separate single oral gavage doses of solution, separated by a washout period, in normal C57BL/6 mice […]
vs 10wk) on the plasma PK of oral dasatinib us ing a nonlinear mixed effects (NLME) PK modeling […]
2. 1 In Vivo Pharmacokinetic (PK) Study
The total plasma PK of dasatinib in C57BL/6 mice (The Jackson Laboratory) was assessed after single oral gavages of 10 mg/kg of dasatinib free base equivalents. Dasatinib (St. Jude Compound […]
sodium citrate buffer pH 3.1 for a final dasatinib concentration of 1 mg/mL for a 10 mL/kg gavage volume.
Mice were grouped by Vitamin D dietary sufficiency status and sex, and studied at 8 and 10 weeks of age. Survival saphenous and facial vein bleeding of mice was conducted using IACUC-approved […]
was sampled 3 times on the 2 separate occasions of dasatinib dosing. […] The tubes were then immediately centrifuged to plasma, and stored on dry ice for […]

## Cc1nc(Nc2ncc(C(=O)Nc3c(C)cccc3Cl)s2)cc(N2CCN(CCO)CC2)n1 [dasatinib]
10 mg/kg into a gastric volume of 300–400 μL
  calculated Cgut: 1.5 mM
10 mg/kg oral gavage, 8 wk vs 10 wk
  influence of VD3 status, sex, or age on oral dasatinib PK: no influence
Base Model
  Q pop: 1.17 L/h/kg
  V1 pop (apparent volume of central compartment): 12.7 L/kg
  V2 pop: 11.1 L/kg
  omega_Cl (inter-individual variability): 0.294 %CV
  omega_V1 (inter-individual variability): 0.465 %CV
Base Model, 10 mg/kg oral gavage, zero order absorption duration
  Tk0 pop: 1.29 h
Final Model
  Q pop: 1.26 L/h/kg
  V1 pop: 12.2 L/kg
  V2 pop: 11.2 L/kg
  omega_Cl: 0.287 %CV
  omega_V1: 0.477 %CV
Final Model (VD3 status and sex covariates on Cl)
  Tk0 pop: 1.33 h
GROUP:VD3 Def, SEX:F, OCC 1, time 0.5
  DV (dasatinib plasma concentration): 206.1 and 158.35
GROUP:VD3 Def, SEX:F, OCC 1, time 1
  DV (dasatinib plasma concentration): 457.04 and 404.1
GROUP:VD3 Def, SEX:F, OCC 1, time 2
  DV (dasatinib plasma concentration): > 500 and 323.65
GROUP:VD3 Def, SEX:F, OCC 1, time 8
  DV (dasatinib plasma concentration): 33.172 and 43.592
GROUP:VD3 Def, SEX:F, OCC 1, time 16
  DV (dasatinib plasma concentration): 2.7889 and 2.9067
GROUP:VD3 Def, SEX:F, OCC 2, time 0.125
  DV (dasatinib plasma concentration): 29.279 and 44.718
GROUP:VD3 Def, SEX:F, OCC 2, time 0.25
  DV (dasatinib plasma concentration): 240.93 and 155.4
GROUP:VD3 Def, SEX:F, OCC 2, time 0.5
  DV (dasatinib plasma concentration): 128.51 and 161.37
GROUP:VD3 Def, SEX:F, OCC 2, time 16
  DV (dasatinib plasma concentration): 6.2042 and 7.8308
GROUP:VD3 Def, SEX:M, OCC 1, time 0.25
  DV (dasatinib plasma concentration): 143.39 and 275.48
GROUP:VD3 Def, SEX:M, OCC 1, time 0.5
  DV (dasatinib plasma concentration): 240.61 and 267.78
GROUP:VD3 Def, SEX:M, OCC 1, time 2
  DV (dasatinib plasma concentration): 760.24
GROUP:VD3 Def, SEX:M, OCC 1, time 4
  DV (dasatinib plasma concentration): 99.618 and 81.306
GROUP:VD3 Def, SEX:M, OCC 1, time 8
  DV (dasatinib plasma concentration): 11.773 and 10.821
GROUP:VD3 Def, SEX:M, OCC 1, time 24
  DV (dasatinib plasma concentration): 7.0494 and 5.7321
GROUP:VD3 Def, SEX:M, OCC 2, time 0.5
  DV (dasatinib plasma concentration): 117.58 and 209.13
GROUP:VD3 Def, SEX:M, OCC 2, time 2
  DV (dasatinib plasma concentration): 376.78 and > 500
GROUP:VD3 Def, SEX:M, OCC 2, time 4
  DV (dasatinib plasma concentration): 62.561 and 70.903
GROUP:VD3 Def, SEX:M, OCC 2, time 8
  DV (dasatinib plasma concentration): 13.735 and 13.061
GROUP:VD3 Def, SEX:M, OCC 2, time 16
  DV (dasatinib plasma concentration): 8.5466 and 7.4123
GROUP:VD3 Suf, SEX:F, OCC 1, time 0.25
  DV (dasatinib plasma concentration): 244.67 and 197.71
GROUP:VD3 Suf, SEX:F, OCC 1, time 0.5
  DV (dasatinib plasma concentration): 144.41 and 217.29
GROUP:VD3 Suf, SEX:F, OCC 1, time 2
  DV (dasatinib plasma concentration): 466.97 and > 500
GROUP:VD3 Suf, SEX:F, OCC 1, time 4
  DV (dasatinib plasma concentration): 105.56 and 62.725
GROUP:VD3 Suf, SEX:F, OCC 1, time 8
  DV (dasatinib plasma concentration): 11.198 and 14.683
GROUP:VD3 Suf, SEX:F, OCC 1, time 16
  DV (dasatinib plasma concentration): 1.9898 and 3.161
GROUP:VD3 Suf, SEX:F, OCC 2, time 0.5
  DV (dasatinib plasma concentration): 124.69 and 151.83
GROUP:VD3 Suf, SEX:F, OCC 2, time 2
  DV (dasatinib plasma concentration): 295.49 and 395.48
GROUP:VD3 Suf, SEX:F, OCC 2, time 4
  DV (dasatinib plasma concentration): 72.682 and 42.565
GROUP:VD3 Suf, SEX:F, OCC 2, time 16
  DV (dasatinib plasma concentration): 9.1881 and 6.2417
GROUP:VD3 Suf, SEX:M, OCC 1, time 0.125
  DV (dasatinib plasma concentration): 35.897 and 45.322
GROUP:VD3 Suf, SEX:M, OCC 1, time 0.25
  DV (dasatinib plasma concentration): 87.715 and 117.65
GROUP:VD3 Suf, SEX:M, OCC 1, time 2
  DV (dasatinib plasma concentration): > 500 and 483.94
GROUP:VD3 Suf, SEX:M, OCC 1, time 4
  DV (dasatinib plasma concentration): 103.68 and 89.88
